Source: patent publication US20170267667A1, “[…] AS NON-NUCLEOSIDE REVERSE TRANSCRIPTASE INHIBITORS FOR ANTI-HIV-1 CHEMOTHERAPY” (Purdue Research Foundation, priority 2016, published 2017)

Assays:
HIV-1RF = experiment: XTT cytoprotection assay, HIV-1RF infection in CEM-SS cells; type: cell-based; conditions: for SI (CC50/EC50) CEM-SS cells: CC50/EC50 ratio, HIV-1RF in CEM-SS cells; for EC50: Human immunodeficiency virus 1, inhibition of cytopathicity of HIV-1RF in CEM-SS cells
Procedure: (§1) In Vitro Antiviral Assay. Evaluation of the antiviral activity of compounds against HIV- 1RF infection in CEM-SS cells was performed using the XTT cytoprotection assay, as previously described (Buckheit, R. W. Jr., et al., Antiviral Res. 1995, 26, 117-132). Evaluation of the antiviral activity of compounds against HIV-1IIIB and HIV-2ROD in MT-4 cells was performed using the MTT assay, as previously described (Rice, W. G. and Bader, J. P., Adv. Pharmacol. (San Diego) 1995, 33, 389-438).

[1] = Cytotoxicity for mock-infected CEM-SS cells; type: cell-based; conditions: human
Procedure: as §1
(§2) Biological Results. The antiviral activities of the ADAMs were evaluated by determining their ability to inhibit the enzymatic activity of HIV-1 RT in vitro (IC50) and protect HIV-infected cells from the cytopathic effects (EC50) of two viral strains (HIV-1RF and HIV-1IIIB). The cytotoxicities (CC50) of the ADAMs were determined on CEM-SS cells and MT-4 cells.

[2] = target: HIV-1 reverse transcriptase (Human immunodeficiency virus type 1 group M subtype B, UniProt P04585); experiment: RT inhibition assay, incorporation of [32P]GTP into poly(rC)/oligo(dG) template primer; type: biochemical; conditions: poly(rC):oligo(dG) as the template primer; mean of at least two experiments; read-out: IC50 inhibitory activity versus HIV-1 reverse transcriptase
Procedure: RT Inhibition Assay. Inhibition of purified recombinant reverse transcriptase was measured by the incorporation of [^32P]GTP into poly(rC)/oligo(dG) homopolymer template primers, as previously described (Cushman, M., et al., J. Med. Chem. 1996, 39, 3217-3227).

HIV-1IIIB = experiment: MTT assay, HIV-1IIIB in MT-4 cells; type: cell-based; conditions: for SI (CC50/EC50) MT-4 cells: CC50/EC50 ratio, HIV-1IIIB in MT-4 cells; for EC50: Human immunodeficiency virus 1, MT4, inhibition of cytopathicity of HIV-1IIIB in MT-4 cells
Procedure: as §1

[3] = Cytotoxicity for mock-infected MT-4 cells; type: cell-based; conditions: human
Procedure: as §1, §2

In the case of `CON=C(Cl)c1cc(/C(=C\CCCc2nnc(C)o2)c2ccc(C#N)cc2)cc(C)c1OC` [ADAM 23, 5-[(1Z)-1-(4-Cyanophenyl)-5-(5-methyl-1,3,4-oxadiazol-2-yl)pent-1-en-1-yl]-N,2-dimethoxy-3-methylbenzenecarboximidoyl Chloride], the “SI (CC50/EC50) CEM-SS cells” value (HIV-1RF) is reported as 7, the EC50 (HIV-1RF) is reported as 2.6 µM and the CC50 [1] is reported as 18.1 µM. For the same compound, the IC50 [2] was 32.5 µM, the “SI (CC50/EC50) MT-4 cells” value (HIV-1IIIB) was 8 and the EC50 (HIV-1IIIB) was 3.64 µM. The CC50 [3] was 30.2 µM.

In the case of `CON=C(Cl)c1cc(/C(=C\CCCc2nc(C)no2)c2ccc(C#N)cc2)cc(C)c1OC` [ADAM 24, 5-[(1Z)-1-(4-Cyanophenyl)-5-(3-methyl-1,2,4-oxadiazol-5-yl)pent-1-en-1-yl]-N,2-dimethoxy-3-methylbenzenecarboximidoyl Chloride], the “SI (CC50/EC50) CEM-SS cells” value (HIV-1RF) is reported as 7, the EC50 (HIV-1RF) is reported as 2.52 µM and the CC50 [1] is reported as 16.9 µM. The IC50 [2] was 0.1 µM, the “SI (CC50/EC50) MT-4 cells” value (HIV-1IIIB) was 35 and the EC50 (HIV-1IIIB) was 2.75 µM. The CC50 [3] was 97.5 µM.

With `CON=C(Cl)c1cc(/C(=C\CCCN2CCOC2=O)c2ccc(C#N)cc2)cc(C)c1OC` [ADAM 25, 5-[(1Z)-1-(4-Cyanophenyl)-5-(2-oxo-1,3-oxazolidin-3-yl)pent-1-en-1-yl]-N,2-dimethoxy-3-methylbenzenecarboximidoyl Chloride] the EC50 (HIV-1RF) was greater than 100 µM, the CC50 [1] was 6.48 µM and the IC50 [2] was 42.1 µM. For the same compound, the EC50 (HIV-1IIIB) was greater than 6.48 µM and the CC50 [3] was 6.48 µM.

In the case of `CO/N=C(\Cl)CCC/C=C(\c1cc(C)c(OC)c(C(=O)SC)c1)c1cc(C)c2oc(=O)n(C)c2c1` [ADAM 26, S-Methyl 5-[(1E,6Z)-6-Chloro-1-(3,7-dimethyl-2-oxo-2,3-dihydro-1,3-benzoxazol-5-yl)-6-(methoxyimino)hex-1-en-1-yl]-2-methoxy-3-methylbenzenecarbothioate], the “SI (CC50/EC50) CEM-SS cells” value (HIV-1RF) is reported as greater than 23, the EC50 (HIV-1RF) is reported as less than 0.32 µM and the CC50 [1] is reported as 7.45 µM. For the same compound, the IC50 [2] was 3.4 µM, the “SI (CC50/EC50) MT-4 cells” value (HIV-1IIIB) was 109 and the EC50 (HIV-1IIIB) was 0.54 µM. For the same compound, the CC50 [3] was 59 µM.

For `CO/N=C(\Cl)CCC/C=C(\c1cc(C)c(OC)c(C(=O)SC)c1)c1cc(C)c2onc(OC)c2c1` [ADAM 27, S-Methyl 5-[(1Z,6Z)-6-Chloro-6-(methoxyimino)-1-(3-methoxy-7-methyl-1,2-benzoxazol-5-yl)hex-1-en-1-yl]-2-methoxy-3-methylbenzenecarbothioate], the “SI (CC50/EC50) CEM-SS cells” value (HIV-1RF) was 3, the EC50 (HIV-1RF) was 2.42 µM and the CC50 [1] was 7.2 µM. For the same compound, the IC50 [2] was 36.4 µM, the “SI (CC50/EC50) MT-4 cells” value (HIV-1IIIB) was 5 and the EC50 (HIV-1IIIB) was 3.27 µM. For the same compound, the CC50 [3] was 16.3 µM.

For `CO/N=C(\Cl)CCC/C=C(/c1cccc(C#N)c1)c1cc(C)c(OC)c(C(=O)SC)c1` [ADAM 28, S-Methyl 5-[(1Z,6Z)-6-Chloro-1-(3-cyanophenyl)-6-(methoxyimino)hex-1-en-1-yl]-2-methoxy-3-methylbenzenecarbothioate], the “SI (CC50/EC50) CEM-SS cells” value (HIV-1RF) was 52, the EC50 (HIV-1RF) was 1.46 µM and the CC50 [1] was 75.5 µM. The IC50 [2] was 45.3 µM, the “SI (CC50/EC50) MT-4 cells” value (HIV-1IIIB) was 59 and the EC50 (HIV-1IIIB) was 2.43 µM. For the same compound, the CC50 [3] was 143 µM.

In the case of `CO/N=C(\Cl)CCC/C=C(/c1ccc(C#N)cc1)c1cc(C)c(OC)c(C(=O)SC)c1` [ADAM 29, S-Methyl 5-[(1Z,6Z)-6-Chloro-1-(4-cyanophenyl)-6-(methoxyimino)hex-1-en-1-yl]-2-methoxy-3-methylbenzenecarbothioate], the “SI (CC50/EC50) CEM-SS cells” value (HIV-1RF) is reported as 25, the EC50 (HIV-1RF) is reported as 2.29 µM and the CC50 [1] is reported as 56.5 µM. The IC50 [2] was 12 µM, the “SI (CC50/EC50) MT-4 cells” value (HIV-1IIIB) was 33 and the EC50 (HIV-1IIIB) was 3.26 µM. It also gave a CC50 [3] of 109 µM.
